Reference: US10323037B2, “Aminopyridazinone compounds as protein kinase inhibitors” (Jiangsu Hengrui Medicine Co., Ltd., priority 2014, dated 2019)

test system: TMD-8 cells; assay: Cell proliferation assay (CellTiter-Glo), TMD-8; assay type: cell-based; conditions: Homo sapiens, TMD8, 120 h; 5-day treatment; read-out: TMD8 cells growth IC50
Procedure: Cell proliferation assay: TMD-8 and SU-DHL-1 cells were maintained at 37° C. in a humidified atmosphere with 5% CO2 in the recommended medium and serum concentrations. For cell proliferation assay, cells were seeded in 96-well pates at a density of 5,000 to 10,000 cells per well and cultured overnight at 37° C. in recommended medium supplemented with 5-10% FBS. On the next day, the test articles at various concentrations or vehicle control (0.5% DMSO) were added into cell culture. After 5-day treatment, the growth of cells was assayed by the CellTiter-Glo® Luminestceaent Cell Viability Assay (Promega). IC50 values were calculated using GraphPad Prism by plotting the logarithm of the concentration versus percent inhibition of cell growth as compared with the vehicle control.

SMILES | IC50
C=CC(=O)N1CCC[C@@H](n2cc(-c3ccc(Oc4c(F)cccc4F)cc3)c3c(N)n[nH]c(=O)c32)C1 [Example 58, (R)-1-(1-acryloylpiperidin-3-yl)-4-amino-3-(4-(2,6-difluorophenoxy)phenyl)-1H-pyrrolo[2,3-d]pyridazin-7(6H)-one] | ≤ 10 nM
C=CC(=O)N1CCC[C@@H](n2c(Cl)c(-c3ccc(Oc4ccccc4)cc3)c3c(N)n[nH]c(=O)c32)C1 [Example 80, (R)-1-(1-acryloylpiperidin-3-yl)-4-amino-2-chloro-3-(4-phenoxyphenyl)-1H-pyrrolo[2,3-d]pyridazin-7(6H)-one] | 10 to 1000 nM
COc1cc(-c2cn([C@@H]3CCCN(C(=O)/C=C/CN(C)C)C3)c3c(=O)[nH]nc(N)c23)ccc1Oc1ccc(Cl)c(Cl)c1 [Example 73, 4-amino-3-[4-(3,4-dichlorophenoxy)-3-methoxy-phenyl]-1-[(3R)-1-[(E)-4-(dimethylamino)but-2-enoyl]-3-piperidyl]-6H-pyrrolo[2,3-d]pyridazin-7-one] | 10 to 1000 nM
N#CN1CCC[C@@H](n2cc(-c3ccc(Oc4ccccc4)cc3)c3c(N)n[nH]c(=O)c32)C1 [Example 20, (R)-3-(4-amino-7-oxo-3-(4-phenoxyphenyl)-6,7-dihydro-1H-pyrrolo[2,3-d]pyridazin-1-yl)piperidine-1-carbonitrile] | ≤ 10 nM
CCC(=O)N1CCC[C@@H](n2cc(-c3ccc(Oc4c(F)cccc4F)cc3)c3c(N)n[nH]c(=O)c32)C1 [Example 115, (R)-4-amino-3-(4-(2,6-difluorophenoxy)phenyl)-1-(1-propionylpiperidin-3-yl)-1H-pyrrolo[2,3-d]pyridazin-7(6H)-one] | 10 to 1000 nM
C/C=C/C(=O)N1CCC[C@@H](n2cc(-c3ccc(Oc4ccccc4)cc3)c3c(N)n[nH]c(=O)c32)C1 [Example 25, 4-amino-1-[(3R)-1-[(E)-but-2-enoyl]-3-piperidyl]-3-(4-phenoxyphenyl)-6H-pyrrolo[2,3-d]pyridazin-7-one] | 10 to 1000 nM
C/C=C/C(=O)N1CCC[C@@H](n2cc(-c3ccc(Oc4c(F)cccc4F)cc3)c3c(N)n[nH]c(=O)c32)C1 [Example 116, 4-amino-3-[4-(2,6-difluorophenoxy)phenyl]-1-[(3R)-1-[(E)-but-2-enoyl]-3-piperidyl]-6H-pyrrolo[2,3-d]pyridazin-7-one] | 10 to 1000 nM
Nc1n[nH]c(=O)c2c1c(-c1ccc(Oc3ccccc3)cc1)cn2[C@@H]1CCCN(C(=O)/C=C/CN2CCC2)C1 [Example 33, 4-amino-1-[(3R)-1-[(E)-4-(azetidin-1-yl)but-2-enoyl]-3-piperidyl]-3-(4-phenoxyphenyl)-6H-pyrrolo[2,3-d]pyridazin-7-one] | ≤ 10 nM
C=CC(=O)N1CCC[C@@H](n2c(F)c(-c3ccc(Oc4ccccc4)cc3)c3c(N)n[nH]c(=O)c32)C1 [Example 81, (R)-1-(1-acryloylpiperidin-3-yl)-4-amino-2-fluoro-3-(4-phenoxyphenyl)-1H-pyrrolo[2,3-d]pyridazin-7(6H)-one] | ≤ 10 nM
C=CC(=O)N1CCC[C@H](n2cc(-c3ccc(Oc4c(F)cccc4F)cc3)c3c(N)n[nH]c(=O)c32)C1 [Example 114, (S)-1-(1-acryloylpiperidin-3-yl)-4-amino-3-(4-(2,6-difluorophenoxy)phenyl)-1H-pyrrolo[2,3-d]pyridazin-7(6H)-one] | ≤ 10 nM
CN(C)C/C=C/C(=O)N1CCCC(n2cc(-c3ccc(Oc4cccc(Cl)c4)cc3)c3c(N)n[nH]c(=O)c32)C1 (stereo not drawn) [Example 67, 4-amino-3-[4-(3-chlorophenoxy)phenyl]-1-[1-[(E)-4-(dimethylamino)but-2-enoyl]-3-piperidyl]-6H-pyrrolo[2,3-d]pyridazin-7-one] | 10 to 1000 nM
Nc1n[nH]c(=O)c2c1c(-c1ccc(Oc3ccccc3)cc1)cn2[C@@H]1CCCN(C(=O)/C=C/CNC2CC2)C1 [Example 28, 4-amino-1-[(3R)-1-[(E)-4-(cyclopropylamino)but-2-enoyl]-3-piperidyl]-3-(4-phenoxyphenyl)-6H-pyrrolo[2,3-d]pyridazin-7-one] | ≤ 10 nM
Nc1n[nH]c(=O)c2c1c(-c1ccc(Oc3ccccc3)cc1)cn2[C@@H]1CCCN(C(=O)CCl)C1 [Example 22, 4-amino-1-[(3R)-1-(2-chloroacetyl)-3-piperidyl]-3-(4-phenoxyphenyl)-6H-pyrrolo[2,3-d]pyridazin-7-one] | 10 to 1000 nM
C=CC(=O)N1CCC[C@@H](n2cc(-c3ccc(Oc4ccccc4)c(F)c3)c3c(N)n[nH]c(=O)c32)C1 [Example 74, (R)-1-(1-acryloylpiperidin-3-yl)-4-amino-3-(3-fluoro-4-phenoxyphenyl)-1H-pyrrolo[2,3-d]pyridazin-7(6H)-one] | ≤ 10 nM
CN(C/C=C/C(=O)N1CCC[C@@H](n2cc(-c3ccc(Oc4ccccc4)cc3)c3c(N)n[nH]c(=O)c32)C1)C1CC1 [Example 29, 4-amino-1-[(3R)-1-[(E)-4-(cyclopropyl(methyl)amino)but-2-enoyl]-3-piperidyl]-3-(4-phenoxyphenyl)-6H-pyrrolo[2,3-d]pyridazin-7-one] | ≤ 10 nM
CN(C)C/C=C/C(=O)N1CCCC(n2cc(-c3ccc(Oc4ccccc4)cc3)c3c(N)n[nH]c(=O)c32)C1 (stereo not drawn) [Example 38, 4-amino-1-[1-[(E)-4-(dimethylamino)but-2-enoyl]-3-piperidyl]-3-(4-phenoxyphenyl)-6H-pyrrolo[2,3-d]pyridazin-7-one] | ≤ 10 nM
C=CC(=O)Nc1cccc(-n2cc(-c3ccc(OC)c(Cl)c3)c3c(N)n[nH]c(=O)c32)c1 [Example 89, N-(3-(4-amino-3-(3-chloro-4-methoxyphenyl)-7-oxo-6,7-dihydro-1H-pyrrolo[2,3-d]pyridazin-1-yl)phenyl)acrylamide] | 10 to 1000 nM
CC#CC(=O)NC1CCC(n2cc(-c3ccc(Oc4ccccc4F)cc3)c3c(N)n[nH]c(=O)c32)C1 (stereo not drawn) [Example 100, N-(3-(4-amino-3-(4-(2-fluorophenoxy)phenyl)-7-oxo-6,7-dihydro-1H-pyrrolo[2,3-d]pyridazin-1-yl)cyclopentyl)but-2-ynamide] | ≤ 10 nM
C=CC(=O)N1CCC[C@@H](n2cc(-c3ccc(Oc4c(F)cccc4Cl)cc3)c3c(N)n[nH]c(=O)c32)C1 [Example 78, (R)-1-(1-acryloylpiperidin-3-yl)-4-amino-3-(4-(2-chloro-6-fluorophenoxy)phenyl)-1H-pyrrolo[2,3-d]pyridazin-7(6H)-one] | ≤ 10 nM
CC#CC(=O)N1CC[C@@H](n2cc(-c3ccc(Oc4ccccc4Cl)cc3)c3c(N)n[nH]c(=O)c32)C1 [Example 96, (R)-4-amino-1-(1-(but-2-ynoyl)pyrrolidin-3-yl)-3-(4-(2-chlorophenoxy)phenyl)-1H-pyrrolo[2,3-d]pyridazin-7(6H)-one] | 10 to 1000 nM
COc1ccc(-c2cn(C3CCCN(C(=O)/C=C/CN(C)C)C3)c3c(=O)[nH]nc(N)c23)cc1 (stereo not drawn) [Example 52, 4-amino-1-[1-[(E)-4-(dimethylamino)but-2-enoyl]-3-piperidyl]-3-(4-methoxyphenyl)-6H-pyrrolo[2,3-d]pyridazin-7-one] | 1000 to 100000 nM
C=CC(=O)N1CC[C@@H](n2cc(-c3ccc(Oc4ccccc4)cc3)c3c(N)n[nH]c(=O)c32)C1 [Example 4, 4-amino-3-(4-phenoxyphenyl)-1-[(3R)-1-prop-2-enoylpyrrolidin-3-yl]-6H-pyrrolo[2,3-d]pyridazin-7-one] | 10 to 1000 nM
COc1ccc(-c2cn(C3CCCN(C(=O)/C=C/CN(C)C)C3)c3c(=O)[nH]nc(N)c23)cc1Cl (stereo not drawn) [Example 54, 4-amino-3-(3-chloro-4-methoxy-phenyl)-1-[1-[(E)-4-(dimethylamino)but-2-enoyl]-3-piperidyl]-6H-pyrrolo[2,3-d]pyridazin-7-one] | 10 to 1000 nM
CC#CC(=O)N[C@H]1CC[C@@H](n2cc(-c3ccc(Oc4ccccc4F)cc3)c3c(N)n[nH]c(=O)c32)CC1 [Example 102, N-((1s,4s)-4-(4-amino-3-(4-(2-fluorophenoxy)phenyl)-7-oxo-6,7-dihydro-1H-pyrrolo[2,3-d]pyridazin-1-yl)cyclohexyl)but-2-ynamide] | ≤ 10 nM
C=CC(=O)N1CCCC(n2cc(-c3ccc(Oc4cccc(F)c4)cc3)c3c(N)n[nH]c(=O)c32)C1 (stereo not drawn) [Example 62, 1-(1-acryloylpiperidin-3-yl)-4-amino-3-(4-(3-fluorophenoxy)phenyl)-1H-pyrrolo[2,3-d]pyridazin-7(6H)-one] | ≤ 10 nM
C=CC(=O)N1CCCC(n2cc(-c3ccc(OC)cc3)c3c(N)n[nH]c(=O)c32)C1 (stereo not drawn) [Example 51, 1-(1-acryloylpiperidin-3-yl)-4-amino-3-(4-methoxyphenyl)-1H-pyrrolo[2,3-d]pyridazin-7(6H)-one] | 10 to 1000 nM
CN(C)C/C=C/C(=O)N1CCC[C@@H](n2cc(-c3ccc(Oc4ccccc4)cc3F)c3c(N)n[nH]c(=O)c32)C1 [Example 77, 4-amino-1-[(3R)-1-[(E)-4-(dimethylamino)but-2-enoyl]-3-piperidyl]-3-(2-fluoro-4-phenoxy-phenyl)-6H-pyrrolo[2,3-d]pyridazin-7-one] | ≤ 10 nM
C=CC(=O)N1C[C@H](n2cc(-c3ccc(Oc4ccccc4)cc3)c3c(N)n[nH]c(=O)c32)CC(F)(F)C1 [Example 14, (R)-1-(1-acryloyl-5,5-difluoropiperidin-3-yl)-4-amino-3-(4-phenoxyphenyl)-1H-pyrrolo[2,3-d]pyridazin-7(6H)-one] | ≤ 10 nM
C=CC(=O)N1CCCC(n2cc(-c3ccc(Oc4ccc(Cl)cc4)cc3)c3c(N)n[nH]c(=O)c32)C1 (stereo not drawn) [Example 64, 1-(1-acryloylpiperidin-3-yl)-4-amino-3-(4-(4-chlorophenoxy)phenyl)-1H-pyrrolo[2,3-d]pyridazin-7(6H)-one] | ≤ 10 nM
C=CC(=O)N1CCCC(n2cc(-c3ccc(OC)c(Cl)c3)c3c(N)n[nH]c(=O)c32)C1 (stereo not drawn) [Example 53, 1-(1-acryloylpiperidin-3-yl)-4-amino-3-(3-chloro-4-methoxyphenyl)-1H-pyrrolo[2,3-d]pyridazin-7(6H)-one] | 10 to 1000 nM
